Source: patent US20220409643A1, “ROR Gamma T Inhibitors and Topical Uses Thereof” (Dermira, inc., priority 2019, published 2022)

test system: IL17A; assay: skin Resident Immune Cell Assay (sRICA), Th17 model, IL17A protein in media; type: cell-based; conditions: 100 uM solution in 1% DMSO/OD applied topically to human skin; media collected 24 hours after Th17 activation
Experimental: A skin Resident Immune Cell Assay (sRICA) was used to test compounds for reduction of IL-17A protein upregulation in the Th17 sRICA model. In this model, human surgical skin waste was cultured in a transwell system, with the dermis in contact with cell culture media and the stratum corneum exposed to air. To perform the assay, each human skin sample was defatted and dermatomed to 750μm. Next, 8 mm punch biopsies were obtained and placed in a membrane transwell. The transwells were inserted into culture wells with complete media, and a cocktail of cytokines and antibodies were added to promote skin resident immune cell polarization.
RORγt inhibitors were prepared as a 100 uM solution in 1% DMSO/OD. […] of the prepared topical solution was applied to sRICA wells prepared for topical drug evaluation. Drugs were allowed to penetrate the skin overnight, for up to 24 hours prior to Th17 activation. Media was collected 24 hours after Th17 activation for IL17A protein assessment. IL17A protein was evaluated using the Quanterix IL17A detection kit on the SiMoA platform (via CRO Translational Biosciences). There was significant upregulation of IL17A with Th17 activation. Each study was normalized to the % max of IL17A production (i.e. the average IL17A concentration of Th17 activated skin alone) was set to 100%, all other values (untreated no activation and treated samples) were obtained as a percentage of this. […]

How did the inhibition at 100 µM turn out when `COCC(C)(C)c1c(F)cc(NC(=O)[C@H]2c3ccc(OC)cc3CCN2C(=O)c2cc(O)no2)cc1F` [(1R)-N-(3,5-difluoro-4-(1-methoxy-2-methylpropan-2-yl)phenyl)-2-((3-hydroxy-1,2-oxazol-5-yl)carbonyl)-6-methoxy-1,2,3,4-tetrahydroisoquinoline-1-carboxamide] was run?
Its inhibition at 100 µM is 56.2%.

`CC(C)n1c(=O)n(CC2CC2)c(=O)c2cc(NC(=O)N3CCC[C@@H](NC(=O)c4cc(F)ccc4F)C3)c(F)cc21` [(3R)-N-(3-(cyclopropylmethyl)-7-fluoro-1-isopropyl-2,4-dioxo-1,2,3,4-tetrahydroquinazolin-6-yl)-3-((2,5-difluorobenzoyl)amino)-piperidine-1-carboxamide] was tested. Which inhibition at 100 µM did it give?
The inhibition at 100 µM was 44.2%.

How did the inhibition at 100 µM turn out when `CC(C)(C)c1ccc(NC(=O)[C@H](NC(=O)[C@@H]2CNC(=O)C2)c2ccc3c(c2)CCO3)cc1F` [(3S)-N-(2-((4-tert-butyl-3-fluorophenyl)amino)-1-(2,3-dihydro-1-benzofuran-5-yl)-2-oxoethyl)-5-oxopyrrolidine-3-carboxamide] was run?
The inhibition at 100 µM was 48.7%.

`COc1ccc2c(c1)CCN(C(=O)Cc1cc(O)no1)[C@H]2C(=O)Nc1cc(F)c(C(C)(C)C)c(F)c1` [(1R)-N-(4-tert-butyl-3,5-difluorophenyl)-2-((3-hydroxy-1,2-oxazol-5-yl)acetyl)-6-methoxy-1,2,3,4-tetrahydroisoquinoline-1-carboxamide] was tested. Which inhibition at 100 µM did it give?
The inhibition at 100 µM was -10.9%.

For `CCOc1ccc2c(c1)CCN(C(=O)Cc1cc(O)no1)[C@H]2C(=O)Nc1cc(F)c2c(c1)CCC2(C)C` [(1R)-6-ethoxy-N-(7-fluoro-1,1-dimethyl-2,3-dihydro-1H-inden-5-yl)-2-((3-hydroxy-1,2-oxazol-5-yl)acetyl)-1,2,3,4-tetrahydroisoquinoline-1-carboxamide], which inhibition at 100 µM is on record?
The inhibition at 100 µM was 67.9%.

For `CC(C)n1c(=O)n(CC2CC(F)(F)C2)c(=O)c2cc(NC(=O)N3CCC[C@@H](N4Cc5ccccc5C4=O)C3)c(F)cc21` [(3R)-N-(3-((3,3-difluorocyclobutyl)-methyl)-7-fluoro-1-isopropyl-2,4-dioxo-1,2,3,4-tetrahydro-quinazolin-6-yl)-3-(1-oxo-1,3-dihydro-2H-isoindol-2-yl)-piperidine-1-carboxamide], which inhibition at 100 µM is on record?
Its inhibition at 100 µM is 73.1%.

Which inhibition at 100 µM does the source give for `COCc1ccc([C@@H](NC(=O)Cc2cc(O)no2)C(=O)Nc2cc(F)c(C(C)(C)C)c(F)c2)cc1` [(2R)-N-(4-tert-butyl-3,5-difluorophenyl)-2-(((3-hydroxy-1,2-oxazol-5-yl)acetyl)amino)-2-(4-(methoxymethyl)phenyl)acetamide] here?
The inhibition at 100 µM was 26.3%.

With `COCc1ccc([C@@H](NC(=O)[C@H]2CNC(=O)C2)C(=O)Nc2ccc(C(C)(C)C)c(F)c2)cc1` [(3R)-N-((1R)-2-((4-tert-butyl-3-fluorophenyl)amino)-1-(4-(methoxymethyl)phenyl)-2-oxoethyl)-5-oxopyrrolidine-3-carboxamide] as the compound, how does the inhibition at 100 µM read?
Its inhibition at 100 µM is 74.1%.

For `COc1ccc2c(c1)CCN(C(=O)Cc1cc(O)no1)[C@H]2C(=O)Nc1cc(F)c2c(c1)CCC2(C)C` [(1R)-N-(7-fluoro-1,1-dimethyl-2,3-dihydro-1H-inden-5-yl)-2-((3-hydroxy-1,2-oxazol-5-yl)acetyl)-6-methoxy-1,2,3,4-tetrahydroisoquinoline-1-carboxamide], which inhibition at 100 µM is on record?
Its inhibition at 100 µM is 33.9%.

`COCC(C)(C)c1c(F)cc(NC(=O)[C@H]2c3ccc(OC)cc3CCN2C(=O)Cc2cc(O)no2)cc1F` [(1R)-N-(3,5-difluoro-4-(1-methoxy-2-methylpropan-2-yl)phenyl)-6-methoxy-2-((3-hydroxy-1,2-oxazol-5-yl)acetyl)-1,2,3,4-tetrahydro-isoquinoline-1-carboxamide] was tested. Which inhibition at 100 µM did it give?
Its inhibition at 100 µM is 46.3%.

For `COc1ccc2c(c1)CCN(C(=O)Cc1cc(O)no1)[C@H]2C(=O)Nc1ccc(C(C)(C)C)c(F)c1` [(1R)-N-(4-tert-butyl-3-fluorophenyl)-2-((3-hydroxy-1,2-oxazol-5-yl)acetyl)-6-methoxy-1,2,3,4-tetrahydroisoquinoline-1-carboxamide], which inhibition at 100 µM is on record?
Its inhibition at 100 µM is 23.6%.

For `COCc1ccc2c(c1)CCN(C(=O)c1cc(O)no1)[C@H]2C(=O)Nc1cc(F)c2c(c1)CCC2(C)C` [(1R)-N-(7-fluoro-1,1-dimethyl-2,3-dihydro-1H-inden-5-yl)-2-((3-hydroxy-1,2-oxazol-5-yl)carbonyl)-6-(methoxymethyl)-1,2,3,4-tetrahydroisoquinoline-1-carboxamide], which inhibition at 100 µM is on record?
Its inhibition at 100 µM is 59.1%.

same assay, conditions: Homo sapiens, 24 h, 100 uM solution in 1% DMSO/OD applied topically to human skin; media collected 24 hours after Th17 activation

How did the inhibition at 100 µM turn out when `COCc1ccc(C(NC(=O)C2CNC(=O)C2)C(=O)Nc2ccc([Si](C)(C)C)c(F)c2)cc1` (stereo not shown) [N-(2-((3-fluoro-4-(trimethylsilyl)phenyl)amino)-1-(4-(methoxymethyl)phenyl)-2-oxoethyl)-5-oxopyrrolidine-3-carboxamide] was run?
Its inhibition at 100 µM is 85.2%.

For `COc1ccc2c(n1)CCN(C(=O)CCCC(=O)O)[C@H]2C(=O)Nc1ccc([Si](C)(C)C)c(F)c1` [5-((5R)-5-((3-fluoro-4-(trimethylsilyl)phenyl)carbamoyl)-2-methoxy-7,8-dihydro-1,6-naphthyridin-6(5H)-yl)-5-oxopentanoic acid], which inhibition at 100 µM is on record?
The inhibition at 100 µM was 51.5%.

For `CC[Si](C)(C)c1c(F)cc(NC(=O)[C@H]2c3ccc(COC)nc3CCN2C(=O)Cc2cc(O)no2)cc1F`, which inhibition at 100 µM is on record?
The inhibition at 100 µM was 68.9%.

How did the inhibition at 100 µM turn out when `CC[Si](C)(C)c1c(F)cc(NC(=O)[C@H]2c3ccc(COC)nc3CCN2C(=O)c2cc(O)no2)cc1F` [(5R)-N-(4-(ethyl(dimethyl)silyl)-3,5-difluorophenyl)-6-((3-hydroxy-1,2-oxazol-5-yl)carbonyl)-2-(methoxymethyl)-5,6,7,8-tetrahydro-1,6-naphthyridine-5-carboxamide] was run?
The inhibition at 100 µM was 48.5%.

How did the inhibition at 100 µM turn out when `COCc1ccc([C@@H](NC(=O)C2CCOCC2)C(=O)Nc2ccc([Si](C)(C)C)c(F)c2)cc1` [N-((1R)-2-((3-fluoro-4-(trimethylsilyl)phenyl)amino)-1-(4-(methoxymethyl)phenyl)-2-oxoethyl)tetrahydro-2H-pyran-4-carboxamide] was run?
Its inhibition at 100 µM is -20.1%.

With `COCc1ccc([C@@H](NC(=O)Cc2nnc(C)o2)C(=O)Nc2cc(F)c([Si](C)(C)C)cc2F)cc1` [(2R)-N-(2,5-difluoro-4-(trimethylsilyl)phenyl)-2-(4-(methoxymethyl)phenyl)-2-(((5-methyl-1,3,4-oxadiazol-2-yl)acetyl)amino)acetamide] as the compound, how does the inhibition at 100 µM read?
Its inhibition at 100 µM is 75.7%.

`COCc1ccc([C@@H](NC(=O)Cn2ccc(=O)cc2)C(=O)Nc2ccc([Si](C)(C)C)c(F)c2)cc1` was tested. Which inhibition at 100 µM did it give?
Its inhibition at 100 µM is 78.4%.

`COCc1ccc([C@@H](NC(=O)Cn2nc(C)ccc2=O)C(=O)Nc2cc(F)c([Si](C)(C)C)c(F)c2)cc1` [(2R)-N-(3,5-difluoro-4-(trimethylsilyl)phenyl)-2-(4-(methoxymethyl)phenyl)-2-(((3-methyl-6-oxopyridazin-1(6H)-yl)acetyl)amino)acetamide] was tested. Which inhibition at 100 µM did it give?
Its inhibition at 100 µM is 38.7%.

With `COc1ccc2c(c1)OCCN(C(=O)Cc1cc(O)no1)[C@H]2C(=O)Nc1cc(F)c([Si](C)(C)C)c(F)c1` [(5R)-N-(3,5-difluoro-4-(trimethylsilyl)phenyl)-4-((3-hydroxy-1,2-oxazol-5-yl)acetyl)-8-methoxy-2,3,4,5-tetrahydro-1,4-benzoxazepine-5-carboxamide] as the compound, how does the inhibition at 100 µM read?
Its inhibition at 100 µM is 58.1%.

How did the inhibition at 100 µM turn out when `COCc1ccc([C@@H](NC(=O)Cc2nnc(C)o2)C(=O)Nc2cc(F)c([Si](C)(C)C)c(F)c2)cc1` [(2R)-N-(3,5-difluoro-4-(trimethylsilyl)phenyl)-2-(4-(methoxymethyl)phenyl)-2-(((5-methyl-1,3,4-oxadiazol-2-yl)acetyl)amino)acetamide] was run?
The inhibition at 100 µM was 60.8%.

How did the inhibition at 100 µM turn out when `COCc1ccc([C@@H](NC(=O)CCS(C)(=O)=O)C(=O)Nc2ccc([Si](C)(C)C)c(F)c2)cc1` [N-((1R)-2-((3-fluoro-4-(trimethylsilyl)phenyl)amino)-1-(4-(methoxymethyl)phenyl)-2-oxoethyl)-3-(methylsulfonyl)propanamide] was run?
The inhibition at 100 µM was 67.4%.

How did the inhibition at 100 µM turn out when `COCc1ccc([C@@H](NC(=O)CNC(C)=O)C(=O)Nc2ccc([Si](C)(C)C)c(F)c2)cc1` was run?
The inhibition at 100 µM was 48.8%.

Which inhibition at 100 µM does the source give for `COCc1ccc([C@@H](NC(=O)Cc2nnc(C)o2)C(=O)Nc2ccc([Si](C)(C)C)c(F)c2)cc1` [(2R)-N-(3-fluoro-4-(trimethylsilyl)phenyl)-2-(4-(methoxymethyl)phenyl)-2-(((5-methyl-1,3,4-oxadiazol-2-yl)acetyl)amino)acetamide] here?
Its inhibition at 100 µM is 35.5%.

For `CC[Si](C)(C)c1c(F)cc(NC(=O)[C@H]2c3ccc(OC)nc3CCN2C(=O)CCCC(=O)O)cc1F` [5-((5R)-5-((4-(ethyl(dimethyl)silyl)-3,5-difluorophenyl)carbamoyl)-2-methoxy-7,8-dihydro-1,6-naphthyridin-6(5H)-yl)-5-oxopentanoic acid], which inhibition at 100 µM is on record?
Its inhibition at 100 µM is 41.9%.

Which inhibition at 100 µM does the source give for `Cn1ncc2cc([C@@H](NC(=O)[C@@H]3CNC(=O)C3)C(=O)Nc3ccc([Si](C)(C)C)c(F)c3)ccc21` [drawing 79, (3S)-N-((1R)-2-((3-fluoro-4-(trimethylsilyl)phenyl)amino)-1-(1-methyl-1H-indazol-5-yl)-2-oxoethyl)-5-oxopyrrolidine-3-carboxamide] here?
The inhibition at 100 µM was 45.7%.

For `Cn1ncc2cc(C(NC(=O)[C@@H]3CNC(=O)C3)C(=O)Nc3ccc([Si](C)(C)C)c(F)c3)ccc21` (stereo partly drawn) [(3S)-N-(2-((3-fluoro-4-(trimethylsilyl)phenyl)amino)-1-(1-methyl-1H-indazol-5-yl)-2-oxoethyl)-5-oxopyrrolidine-3-carboxamide], which inhibition at 100 µM is on record?
The inhibition at 100 µM was 58.3%.
